Structures are written as SMILES. Converted amounts (≈) assume the structure as drawn. The source made the active and inactive calls. No cut-off for these calls is given here.

Experiment [1] concerns rhinovirus B14. Description: In vitro minimum inhibitory concentration for the inhibition of human rhinovirus-14 replication. The format is functional.
Experiment [2] relates to rhinovirus B14. Kind of experiment: In vitro minimum inhibitory concentration for the inhibition of human rhinovirus-14 (HRV-14) replication by binding to viral capsid; NA= inactive at the 10 umol. The format is functional, organism-based.
In experiment [3] the test system is rhinovirus B14. Kind of experiment: In vitro inhibitory activity against human rhinovirus-14 was determined. It is filed as functional. Particulars: Rhinovirus B.

In turn, `CCCCc1cc(CCCCCOc2ccc(C3=NCCO3)cc2)on1` displayed an MIC in experiment [1] (Rhinovirus B) of 0.56 µM (≈ 0.2 µg/mL).

In experiment [1] (Rhinovirus B), `Cc1cc(CCCCCOc2ccc(C3=NCCO3)cc2Cl)on1` displayed an MIC of 2.41 µM (≈ 0.841 µg/mL).

`CCCc1cc(CCCCCOc2ccc(C3=NCCO3)cc2)on1`: the MIC in experiment [1] (Rhinovirus B) is 0.16 µM (≈ 0.0548 µg/mL).

In turn, `Cc1cc(CCCCCOc2ccc(-c3nc(C)c(C)s3)cc2)on1` gave an MIC in experiment [1] (Rhinovirus B) of 0.14 µM (≈ 0.0499 µg/mL).

`Cc1cc(CCCCCCCOc2ccc(C3=NC(C)(C)CO3)cc2)on1` yielded an MIC in experiment [1] (Rhinovirus B) of 0.16 µM (≈ 0.0593 µg/mL).

Consider `Cc1cc(CCCCOc2ccc(C3=NCCO3)cc2)on1`, for which the MIC result in experiment [1] is “inactive”.

Take `Cc1cc(CCCCOc2ccc(C3=NCCO3)cc2Cl)on1`: the MIC in experiment [1] (Rhinovirus B) was 9.2 µM (≈ 3.08 µg/mL).

`Cc1cc(CCCCCCOc2ccc(C3=NCCO3)cc2)on1` gave an MIC in experiment [1] (Rhinovirus B) of 2.9 µM (≈ 0.952 µg/mL).

For `Cc1cc(CCCCCCCOc2ccc(C3=NC(C)CO3)cc2)on1` (centres undefined), the MIC in experiment [1] (Rhinovirus B) was determined as 0.05 µM (≈ 0.0178 µg/mL).

`Cc1cc(CCCCCOc2ccc(C3=NCCO3)cc2N(C)C)on1`: in experiment [2], the MIC entry was “inactive”.

In experiment [1] (Rhinovirus B), `Cc1cc(CCCCCCCCOc2ccc(C3=NCCO3)cc2)on1` yielded an MIC of 3.92 µM (≈ 1.4 µg/mL).

Take `Cc1cc(CCCCCOc2c(Cl)cc(-c3ccoc3)cc2Cl)on1`: the MIC entry in experiment [2] was “inactive”.

`Cc1cc(CCCCCOc2c(Cl)cc(C3=NCCO3)cc2C(C)(C)C)on1`: the MIC result in experiment [2] was “inactive”.

Compound `Cc1cc(CCCCCCCOc2ccc(C3=NCCO3)cc2Cl)on1` gave an MIC in experiment [1] (Rhinovirus B) of 1.06 µM (≈ 0.399 µg/mL).

For the compound `Cc1cc(CCCCCCCOc2ccc(C3=NC(C)CO3)cc2Cl)on1` (centres undefined), the MIC in experiment [1] (Rhinovirus B) is 2.4 µM (≈ 0.938 µg/mL).

For the compound `Cc1cc(CCCCCOc2ccc(C3=NC(C)CO3)cc2)on1` (centres undefined), the MIC in experiment [1] (Rhinovirus B) was determined as 0.7 µM (≈ 0.23 µg/mL).

Regarding `CCc1cc(C2=NCCO2)cc(C)c1OCCCCCc1cc(C)no1`, the MIC result in experiment [2] is “inactive”.

For `Cc1cc(CCCCCCCOc2ccc(C3=NC(CO)CO3)cc2)on1` (centres undefined), in experiment [1] (Rhinovirus B), the MIC was determined as 0.16 µM (≈ 0.0596 µg/mL).

As to `Cc1cc(CCCCCOc2c(C)cc(-c3ccco3)cc2C)on1`, the MIC result in experiment [2] was “inactive”.

As to `CC[C@H]1COC(c2ccc(OCCCCCCCc3cc(C)no3)cc2)=N1`, the MIC in experiment [1] (Rhinovirus B) came out at 0.023 µM (≈ 0.00852 µg/mL).

For the compound `Cc1cc(CCCCCOc2c(C)cc(-c3ccoc3)cc2C)on1`, the MIC entry in experiment [2] is “inactive”.

Turning to `Cc1cc(CCCCCOc2c(Cl)cc(-c3cnco3)cc2Cl)on1`, the MIC entry in experiment [2] was “inactive”.

`CCc1cc(CCCCCOc2ccc(C3=NCCO3)cc2)on1` returned an MIC in experiment [1] (Rhinovirus B) of 0.43 µM (≈ 0.141 µg/mL).

Consider `Cc1cc(CCCCCCCCOc2ccc(C3=NCCO3)cc2Cl)on1`, for which the MIC in experiment [1] (Rhinovirus B) worked out at 14.3 µM (≈ 5.6 µg/mL).

On to `Cc1cc(CCCCCCCOc2ccc(C3=NCCO3)cc2)on1` [DISOXARIL], for which the MIC in experiment [1] (Rhinovirus B) stood at 0.41 µM (≈ 0.14 µg/mL).

Consider `Cc1cc(CCCCCOc2ccc(C3=NCCO3)cc2)on1`, for which the MIC in experiment [3] is 1.27 µM (≈ 0.399 µg/mL); in experiment [1] (Rhinovirus B), 0.51 µM (≈ 0.16 µg/mL).

In experiment [1] (Rhinovirus B), `OCCOCOCc1cc(CCCCCCCOc2c(Cl)cc(C3=NCCO3)cc2Cl)on1` came in with an MIC of 0.06 µM (≈ 0.0301 µg/mL).

In the case of `Cc1cc(CCCCCCOc2ccc(C3=NCCO3)cc2Cl)on1`, the MIC in experiment [1] (Rhinovirus B) was found to be 3.86 µM (≈ 1.4 µg/mL).

(Values after ChEMBL document CHEMBL1125158, “A model for compounds active against human rhinovirus-14 based on X-ray crystallography data” (1990).)
